According to ChEMBL document CHEMBL3608278 (J Med Chem, 2015):

Legend:
[1] = target: T1, Potassium voltage-gated channel subfamily A member 3 (Homo sapiens, UniProt P22001); set-up: species or system Blood
[2] = target: T1, Potassium voltage-gated channel subfamily A member 3; type: cell-based, CHO-K1
[3] = target: T1, Potassium voltage-gated channel subfamily A member 3; assay: cell-based; set-up: species or system Blood

T1 sequence (P22001 whole entry): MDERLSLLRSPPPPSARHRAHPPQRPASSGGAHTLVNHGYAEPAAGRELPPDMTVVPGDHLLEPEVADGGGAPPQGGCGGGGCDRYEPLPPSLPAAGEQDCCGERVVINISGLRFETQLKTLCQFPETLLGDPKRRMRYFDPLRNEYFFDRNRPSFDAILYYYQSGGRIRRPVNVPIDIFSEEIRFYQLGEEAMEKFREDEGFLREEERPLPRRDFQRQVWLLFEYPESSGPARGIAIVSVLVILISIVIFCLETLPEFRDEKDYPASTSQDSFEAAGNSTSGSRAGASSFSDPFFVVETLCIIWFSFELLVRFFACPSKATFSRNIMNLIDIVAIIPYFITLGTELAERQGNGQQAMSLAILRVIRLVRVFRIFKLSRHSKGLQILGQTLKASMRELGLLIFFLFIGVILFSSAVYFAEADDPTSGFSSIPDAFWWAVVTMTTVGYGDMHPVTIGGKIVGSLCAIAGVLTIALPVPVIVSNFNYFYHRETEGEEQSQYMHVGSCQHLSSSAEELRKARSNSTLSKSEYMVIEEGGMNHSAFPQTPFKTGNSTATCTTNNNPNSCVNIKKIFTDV

SMILES | IC50 [1] [nM] | IC50 [2] [nM] | IC50 [3] [nM]
CC[C@H](C)[C@@H]1NC(=O)[C@@H](NC(=O)[C@H](CO)NC(=O)[C@@H](N)CCCNC(=N)N)CSSC[C@@H](C(=O)O)NC(=O)[C@H]([C@@H](C)O)NC(=O)CNC(=O)[C@@H]2CSSC[C@@H]3NC(=O)[C@H](CCC(N)=O)NC(=O)[C@H](Cc4ccccc4)NC(=O)[C@H](C)NC(=O)[C@H]([C@@H](C)O)NC(=O)[C@H](CSSC[C@H](NC(=O)[C@H](Cc4ccccc4)NC(=O)[C@H](CO)NC(=O)[C@H](CC(C)C)NC(=O)[C@H](CCCNC(=N)N)NC(=O)[C@H](Cc4ccc(O)cc4)NC(=O)[C@H](CCCCN)NC(=O)[C@H](CCSC)NC(=O)[C@H](CO)NC(=O)[C@H](Cc4cnc[nH]4)NC(=O)[C@H](CCCCN)NC3=O)C(=O)N[C@@H](CCCNC(=N)N)C(=O)N[C@@H](CCCCN)C(=O)N[C@@H]([C@@H](C)O)C(=O)N2)NC(=O)[C@H](CCCNC(=N)N)NC(=O)[C@H](CO)NC(=O)[C@H](CCC(=O)O)NC(=O)[C@@H]2CCCN2C(=O)[C@H]([C@@H](C)CC)NC(=O)[C@H]([C@@H](C)O)NC(=O)[C@H](CC(=O)O)NC1=O | 0.056 | 0.146 | 0.037
CC[C@H](C)[C@@H]1NC(=O)[C@@H](NC(=O)[C@H](CO)NC(=O)[C@@H](N)CCCNC(=N)N)CSSC[C@@H](C(=O)O)NC(=O)[C@H]([C@@H](C)O)NC(=O)CNC(=O)[C@@H]2CSSC[C@@H]3NC(=O)[C@H](CCC(N)=O)NC(=O)[C@H](Cc4ccccc4)NC(=O)[C@H](C)NC(=O)[C@H]([C@@H](C)O)NC(=O)[C@H](CSSC[C@H](NC(=O)[C@H](Cc4ccccc4)NC(=O)[C@H](CO)NC(=O)[C@H](Cc4cccc5ccccc45)NC(=O)[C@H](CCCNC(=N)N)NC(=O)[C@H](Cc4ccc(O)cc4)NC(=O)[C@H](CCCCN)NC(=O)[C@H](CCSC)NC(=O)[C@H](CO)NC(=O)[C@H](Cc4cnc[nH]4)NC(=O)[C@H](CCCCN)NC3=O)C(=O)N[C@@H](CCCNC(=N)N)C(=O)N[C@@H](CCCCN)C(=O)N[C@@H]([C@@H](C)O)C(=O)N2)NC(=O)[C@H](CCCNC(=N)N)NC(=O)[C@H](CO)NC(=O)[C@H](CCCCN)NC(=O)[C@@H]2CCCN2C(=O)[C@H]([C@@H](C)CC)NC(=O)[C@H]([C@@H](C)O)NC(=O)[C@H](CC(=O)O)NC1=O | 0.084 | 0.103 | 0.061
CC[C@H](C)[C@@H]1NC(=O)[C@@H](NC(=O)[C@H](CO)NC(=O)[C@@H](N)CCCNC(=N)N)CSSC[C@@H](C(=O)O)NC(=O)[C@H]([C@@H](C)O)NC(=O)CNC(=O)[C@@H]2CSSC[C@@H]3NC(=O)[C@H](CCC(N)=O)NC(=O)[C@H](Cc4ccccc4)NC(=O)[C@H](C)NC(=O)[C@H]([C@@H](C)O)NC(=O)[C@H](CSSC[C@H](NC(=O)[C@H](Cc4ccccc4)NC(=O)[C@H](CO)NC(=O)[C@H](CC(C)C)NC(=O)[C@H](CCCNC(=N)N)NC(=O)[C@H](Cc4ccc(O)cc4)NC(=O)[C@H](CCCCN)NC(=O)[C@H](CCSC)NC(=O)[C@H](CO)NC(=O)[C@H](Cc4cnc[nH]4)NC(=O)[C@H](CCCCN)NC3=O)C(=O)N[C@@H](CCCNC(=N)N)C(=O)N[C@@H](CCCCN)C(=O)N[C@@H]([C@@H](C)O)C(=O)N2)NC(=O)[C@H](CCCNC(=N)N)NC(=O)[C@H](CO)NC(=O)[C@H](CCCCN)NC(=O)[C@@H]2CCCN2C(=O)[C@H]([C@@H](C)CC)NC(=O)[C@H]([C@@H](C)O)NC(=O)[C@H](Cc2cccc3ccccc23)NC1=O | > 31.9 | > 3.33 | 70.4
CC[C@H](C)[C@@H]1NC(=O)[C@@H](NC(=O)[C@H](CO)NC(=O)[C@@H](N)CCCNC(=N)N)CSSC[C@@H](C(=O)O)NC(=O)[C@H]([C@@H](C)O)NC(=O)CNC(=O)[C@@H]2CSSC[C@@H]3NC(=O)[C@H](CCC(N)=O)NC(=O)[C@H](Cc4ccccc4)NC(=O)[C@H](C)NC(=O)[C@H]([C@@H](C)O)NC(=O)[C@H](CSSC[C@H](NC(=O)[C@H](Cc4ccccc4)NC(=O)[C@H](CO)NC(=O)[C@H](CC(C)C)NC(=O)[C@H](CCCNC(=N)N)NC(=O)[C@H](CCC(=O)O)NC(=O)[C@H](CCCCN)NC(=O)[C@H](CCSC)NC(=O)[C@H](CO)NC(=O)[C@H](Cc4cnc[nH]4)NC(=O)[C@H](CCCCN)NC3=O)C(=O)N[C@@H](CCCNC(=N)N)C(=O)N[C@@H](CCCCN)C(=O)N[C@@H]([C@@H](C)O)C(=O)N2)NC(=O)[C@H](CCCNC(=N)N)NC(=O)[C@H](CO)NC(=O)[C@H](CCCCN)NC(=O)[C@@H]2CCCN2C(=O)[C@H]([C@@H](C)CC)NC(=O)[C@H]([C@@H](C)O)NC(=O)[C@H](CC(=O)O)NC1=O | > 100 | > 3.33 | > 100
CC[C@H](C)[C@@H]1NC(=O)[C@@H](NC(=O)[C@H](CO)NC(=O)[C@@H](N)CCCNC(=N)N)CSSC[C@@H](C(=O)O)NC(=O)[C@H]([C@@H](C)O)NC(=O)CNC(=O)[C@@H]2CSSC[C@@H]3NC(=O)[C@H](CCC(N)=O)NC(=O)[C@H](Cc4ccccc4)NC(=O)[C@H](C)NC(=O)[C@H]([C@@H](C)O)NC(=O)[C@H](CSSC[C@H](NC(=O)[C@H](Cc4ccccc4)NC(=O)[C@H](CO)NC(=O)[C@H](CC(C)C)NC(=O)[C@H](CCCNC(=N)N)NC(=O)[C@H](Cc4ccc(O)cc4)NC(=O)[C@H](CCCCN)NC(=O)[C@H](CCSC)NC(=O)[C@H](CO)NC(=O)[C@H](Cc4cnc[nH]4)NC(=O)[C@H](CCCCN)NC3=O)C(=O)N[C@@H](CCCNC(=N)N)C(=O)N[C@@H](CCCCN)C(=O)N[C@@H]([C@@H](C)O)C(=O)N2)NC(=O)[C@H](CCCNC(=N)N)NC(=O)[C@H](CO)NC(=O)[C@H](CCCCN)NC(=O)[C@@H]2CCCN2C(=O)[C@H](C)NC(=O)[C@H]([C@@H](C)O)NC(=O)[C@H](CC(=O)O)NC1=O | 1.98 | 0.201 | 0.748
CC[C@H](C)[C@@H]1NC(=O)[C@@H](NC(=O)[C@H](CO)NC(=O)[C@@H](N)CCCNC(=N)N)CSSC[C@@H](C(=O)O)NC(=O)[C@H]([C@@H](C)O)NC(=O)CNC(=O)[C@@H]2CSSC[C@@H]3NC(=O)[C@H](CCC(N)=O)NC(=O)[C@H](Cc4ccccc4)NC(=O)[C@H](C)NC(=O)[C@H]([C@@H](C)O)NC(=O)[C@H](CSSC[C@H](NC(=O)[C@H](Cc4cccc5ccccc45)NC(=O)[C@H](CO)NC(=O)[C@H](CC(C)C)NC(=O)[C@H](CCCNC(=N)N)NC(=O)[C@H](Cc4ccc(O)cc4)NC(=O)[C@H](CCCCN)NC(=O)[C@H](CCSC)NC(=O)[C@H](CO)NC(=O)[C@H](Cc4cnc[nH]4)NC(=O)[C@H](CCCCN)NC3=O)C(=O)N[C@@H](CCCNC(=N)N)C(=O)N[C@@H](CCCCN)C(=O)N[C@@H]([C@@H](C)O)C(=O)N2)NC(=O)[C@H](CCCNC(=N)N)NC(=O)[C@H](CO)NC(=O)[C@H](CCCCN)NC(=O)[C@@H]2CCCN2C(=O)[C@H]([C@@H](C)CC)NC(=O)[C@H]([C@@H](C)O)NC(=O)[C@H](CC(=O)O)NC1=O | 2.84 | 0.223 | 1.07
